According to patent publication US8420884B2, “Models of malignant brain cancer, and therapeutic siRNAs against oncogenic signaling pathways, and methods and kits for uses therefor” (Tufts Medical Center Inc., priority 2008, dated 2013):
Entries after “also recorded” stand apart in the source; their conditions may differ.

Experiments:
GBMs = settings: GBM patients; cited from earlier work
[1] = tested on: GBM tumors in conditional EGFR animals; settings: animal number 2148; 80 days
Procedure: Bioluminescence was measured noninvasively using the IVIS 200 imaging system (Xenogen). For live imaging, the surface areas of focus for imaging were depilated using commercial depilatory creams. Images were taken 10 min after IP injection of luciferin (225 mg/kg, Xenogen) to allow sufficient time for distribution of luciferin, with a 60 second photon acquisition during which mice were sedated via continuous inhalation of 3% isoflurane. For organ imaging post luciferin injection, animals were incubated for 10 min and perfused transcardially with saline. Bioluminescence imaging was then performed on individually dissected organs. Signal intensity was quantified for defined regions of interest as photon count rate per unit body area per unit solid angle subtended by the detector (units of photons/s/cm^2/steradian). All image analyses and bioluminescent quantification were performed using Living Image software v. 2.50 (Xenogen).
Conditional EGFR animals were examined using bioluminescence imaging at different periods of time after tumor induction with Ad-Cre-recombinase by the methods above.

[2] = tested on: recurrent and newly diagnosed GBMs; settings: unselected patients; phase II; cited from earlier work
GBM culture 103 = assay: Cytotoxicity of NXD30001 and 17-AAG in GBM cultures; type: cell-based, mouse; settings: GBM 103; mean of three independent experiments ± standard deviation
Procedure: (§1) Primary cultures of tumors or newborn mice astrocytes were established as follows: tumors or P0 neonate cortices were excised and minced in 0.25% trypsin (wt/vol) 1 mM EDTA and allowed to disaggregate for 15 min at 37° C. The resulting cell suspension was then strained through a 70-μm cell strainer (Falcon). The single suspension of cells was washed in PBS twice and plated on 0.2% gelatin-coated tissue culture plates. Cells were fed every 24 hr with fresh medium that consisted of DMEM supplemented with 10% heat-inactivated FBS and antibiotics. The primary cultures of astrocytes were routinely stained for markers of astrocytic lineages by immunofluorescence.
(§2) Cytotoxicity of NXD30001 was assessed in GMB cell proliferating cultures obtained from clinical mouse subjects and was compared to that of 17-(Allylamino)-17-demethoxygeldanamycin (17-AAG), an ansamycin antibiotic which binds to HSP90. Data obtained was analyzed as half maximum inhibitory concentration (1050) values (Table 3).

GBM culture 102 = assay: as above; type: cell-based, mouse; settings: GBM 102; mean of three independent experiments ± standard deviation
Procedure: as §1, §2

GBM culture 2227 = assay: as above; type: cell-based, mouse; settings: GBM 2227; mean of three independent experiments ± standard deviation
Procedure: as §1, §2

GBM culture 42 = assay: as above; type: cell-based, mouse; settings: GBM 42; mean of three independent experiments ± standard deviation
Procedure: as §1, §2

GBM culture 46 = assay: as above; type: cell-based, mouse; settings: GBM 46; mean of three independent experiments ± standard deviation
Procedure: as §1, §2

GBM culture 2414 = assay: as above; type: cell-based, mouse; settings: GBM 2414; mean of three independent experiments ± standard deviation
Procedure: as §1, §2

GBM culture 41 = assay: as above; type: cell-based, mouse; settings: GBM 41; mean of three independent experiments ± standard deviation
Procedure: as §1, §2

GBM culture 2000 = assay: as above; type: cell-based, mouse; settings: GBM 2000; mean of three independent experiments ± standard deviation
Procedure: as §1, §2

GBM-2 cells = assay: as above; type: cell-based, mouse; settings: mean of three independent experiments ± standard deviation
Procedure: as §1, §2

GBM culture 69 = assay: as above; type: cell-based, mouse; settings: GBM 69; mean of three independent experiments ± standard deviation
Procedure: as §1, §2

GBM culture 2734 = assay: as above; type: cell-based, mouse; settings: GBM 2734; mean of three independent experiments ± standard deviation
Procedure: as §1, §2

GBM culture 2231 = assay: as above; type: cell-based, mouse; settings: GBM 2231; mean of three independent experiments ± standard deviation
Procedure: as §1, §2

GBM culture 2415 = assay: as above; type: cell-based, mouse; settings: GBM 2415; mean of three independent experiments ± standard deviation
Procedure: as §1, §2

GBM-1 cells = assay: as above; type: cell-based, mouse; settings: mean of three independent experiments ± standard deviation
Procedure: as §1, §2

CO[C@H]1C[C@@H]2CC[C@@H](C)[C@@](O)(O2)C(=O)C(=O)N2CCCC[C@H]2C(=O)O[C@H]([C@H](C)C[C@@H]2CC[C@@H](OC(=O)C(C)(CO)CO)[C@H](OC)C2)CC(=O)[C@H](C)/C=C(\C)[C@@H](O)[C@@H](OC)C(=O)[C@H](C)C[C@H](C)/C=C/C=C/C=C/1C [temsirolimus]
Phase II results of two clinical trials (GBMs): negative, with no improvement in response rates, progression-free survival or overall survival

C#Cc1cccc(Nc2ncnc3cc(OCCOC)c(OCCOC)cc23)c1 [Tarceva, erlotinib]
outcome by bioluminescence imaging [1]: essentially cured by treatment; also recorded: essentially been cured of cancer | overall efficacy [2]: minimal when compared with historical data

COc1cc2ncnc(Nc3ccc(F)c(Cl)c3)c2cc1OCCCN1CCOCC1 [gefitinib]
overall efficacy [2]: minimal when compared with historical data

C=CCNC1=C2C[C@@H](C)C[C@H](OC)[C@H](O)[C@@H](C)/C=C(\C)[C@H](OC(N)=O)[C@@H](OC)/C=C\C=C(/C)C(=O)NC(=CC1=O)C2=O [17-AAG, 17-(Allylamino)-17-demethoxygeldanamycin]
IC50 (GBM culture 103): 794 ± 28.7 nM | IC50 (GBM culture 102): 626.2 ± 6 nM | IC50 (GBM culture 2227): 712 nM | IC50 (GBM culture 42): 166 ± 24.9 nM | IC50 (GBM culture 46): 91.9 ± 1.4 nM | IC50 (GBM culture 2414): 205 ± 13.1 nM | IC50 (GBM culture 41): 100 ± 5 nM | IC50 (GBM culture 2000): 345 ± 75.5 nM | IC50 (GBM-2 cells): 1100 ± 119 nM | IC50 (GBM culture 69): 91 nM | IC50 (GBM culture 2734): 381 nM | IC50 (GBM culture 2231): 737 ± 72 nM | IC50 (GBM culture 2415): 329 ± 50.1 nM | IC50 (GBM-1 cells): 208 ± 9.6 nM
